pEC50: −log10 of the molar value. Like-named read-outs stand apart in the source and are kept apart here.
What was measured:
HBV = HBV inhibitory activity: HBV DNA in the culture medium of HepG2.2.15 cells by q-PCR; assay type: cell-based; settings: Hepatitis B virus, HepG2.2.15, 144 h
Experimental: (§1) HBV replication inhibition by the compounds of this invention as well as cytotoxicity determination was determined in cells infected or transfected with HBV, or cells with stably integrated HBV, such as HepG2.2.15 cells (Sells et al. 1987). The method used herein is as follows.
(§2) The HepG2.2.15 cells were seeded into 96-well plate in 2% FBS (Fetal bovine serum) culture medium at the density of 40,000 cells/well and 5,000 cells/well for HBV inhibitory activity and cytotoxicity determination, respectively. After seeding, the cell plates were incubated at 37° C., 5% CO2 overnight. The next day, medium containing compounds were added to treat the cells for 6 days with medium refreshed once in the middle of the treatment. Eight dose points with 3 folds dilution of each compound were adopted and the highest concentration of the compounds was 10 μM and 100 μM for HBV inhibitory activity and cytotoxicity determination, respectively.
The HBV DAN change in the cell culture medium induced by the compounds was measured by q-PCR (quantitative polymerase chain reaction) method. The HBV DNA in the culture medium was extracted using QIAamp 96 DNA Blood Kit according to the manual and then quantified by q-PCR using the primers and probe in the table below: […]
(§3) EC50 and CC50 values are calculated by the GraphPad Prism software and are averages where multiple measurements were made. EC50 values for the other exemplified compounds were either not measured or higher than 1 μM.

[1] = Cytotoxicity determination in HepG2.2.15 cells (CCK-8); assay type: cell-based; settings: human, 6 days of compound treatment, CCK-8, highest concentration 100 μM
Experimental: as §1, §2
After 6 days of compounds treatment, 20 μl CCK-8 (Cell Counting Kit-8 (Tianjin Biolite company)) reagents were added to each well of cytotoxicity assay plates, the plate was incubated at 37° C., 5% CO2 for 2.5 hours and the absorbance at 450 nm wavelength was measured, at the same time the absorbance at 630 nm wavelength was read as reference.
as §3

[2] = HepG2.2.15 cells, 6 days of compound treatment, HBV DNA in culture medium by q-PCR, highest concentration 10 μM, read-out: EC50

Structure (SMILES) | pEC50 (HBV; [2]) | CC50 at 6 days [1] [µM] | pEC50 (HBV)
COC(=O)C1=C(C2CCN(S(=O)(=O)CCC(=O)O)CC2)NC(c2nccs2)=NC1c1ccc(F)c(F)c1Cl (stereo not shown) [Compound 230, 3-((4-(6-(2-Chloro-3,4-difluorophenyl)-5-(methoxycarbonyl)-2-(thiazol-2-yl)-3,6-dihydropyrimidin-4-yl)piperidin-1-yl)sulfonyl)propanoic Acid] | 6.84 | > 100 | 
CCOC(=O)C1=C([C@H]2CC[C@H](C(=O)O)CC2)NC(c2nccs2)=NC1c1ccc(F)cc1Br (stereo partly shown) [Compound 156] | 7.15 | 34.9 | 
COC(=O)C1=C([C@H]2CC[C@@H](N(CC(=O)O)S(C)(=O)=O)CC2)NC(c2nccs2)=NC1c1ccc(F)cc1Cl (relative stereo) [Compound 135, 2-(N-(cis-4-(6-(2-chloro-4-fluorophenyl)-5-(methoxycarbonyl)-2-(thiazol-2-yl)-3,6-dihydropyrimidin-4-yl)cyclohexyl)methylsulfonamido)acetic Acid] | 6.46 | 62.5 | 
COC(=O)C1=C(C2CCN(S(=O)(=O)[C@H]3C[C@H](C(=O)O)C3)C2)NC(c2nccs2)=NC1c1ccc(F)cc1Cl (relative stereo) [Compound 367A, (trans)-3-((3-(6-(2-chloro-4-fluorophenyl)-5-(methoxycarbonyl)-2-(thiazol-2-yl)-3,6-dihydropyrimidin-4-yl)pyrrolidin-1-yl)sulfonyl)cyclobutanecarboxylic Acid] | 6.52 | 33.4 | 
COC(=O)C1=C(C2CCN(S(=O)(=O)CCO)CC2)NC(c2nccs2)=NC1c1ccc(F)cc1Cl (single isomer, unassigned) [Compound 185B, Methyl 4-(2-chloro-4-fluorophenyl)-6-(1-((2-hydroxyethyl)sulfonyl)piperidin-4-yl)-2-(thiazol-2-yl)-1,4-dihydropyrimidine-5-carboxylate] | 7.74 | 26.2 | 
CCS(=O)(=O)N1CCC(C2=C(C(=O)OC)C(c3ccc(F)cc3Cl)N=C(c3nccs3)N2)CC1 (stereo not shown) [Compound 101, Methyl 4-(2-chloro-4-fluorophenyl)-6-(1-(ethylsulfonyl)piperidin-4-yl)-2-(thiazol-2-yl)-1,4-dihydropyrimidine-5-carboxylate] | 6.68 | 38 | 
COC(=O)C1=C([C@H]2C[C@H](NS(C)(=O)=O)C2)NC(c2nccs2)=NC1c1ccc(F)cc1Cl (single isomer, unassigned) [Compound 206B, (trans)-Methyl 4-(2-chloro-4-fluorophenyl)-6-(3-(methylsulfonamido)cyclobutyl)-2-(thiazol-2-yl)-1,4-dihydropyrimidine-5-carboxylate] | 6.97 | 26.1 | 
CCOC(=O)C1=C(C2CCN(S(=O)(=O)C3CC(CC(=O)O)C3)CC2)NC(c2nccs2)=NC1c1ccc(F)c(F)c1Cl (stereo not shown) [Compound 482A, 2-(3-((4-(6-(2-Chloro-3,4-difluorophenyl)-5-(ethoxycarbonyl)-2-(thiazol-2-yl)-3,6-dihydropyrimidin-4-yl)piperidin-1-yl)sulfonyl)cyclobutyl)acetic Acid] | 8.22 | 15.3 | 
CCOC(=O)C1=C([C@H]2C[C@@H](NS(C)(=O)=O)C2(C)C)NC(c2nccs2)=NC1c1ccc(F)cc1Cl (mixture of isomers) [Compound 437, (cis)-Ethyl 4-(2-chloro-4-fluorophenyl)-6-(2,2-dimethyl-3-(methylsulfonamido)cyclobutyl)-2-(thiazol-2-yl)-1,4-dihydropyrimidine-5-carboxylate] | 6.39 | 4 | 
COC(=O)C1=C(C23CC(C(=O)O)(C2)C3)NC(c2nccs2)=NC1c1ccc(F)cc1Cl (stereo not shown) [Compound 258B, 3-(6-(2-Chloro-4-fluorophenyl)-5-(methoxycarbonyl)-2-(thiazol-2-yl)-3,6-dihydropyrimidin-4-yl)bicyclo[1.1.1]pentane-1-carboxylic Acid] | 6.40 | 27.4 | 
COC(=O)C1=C(C23CC(NS(=O)(=O)CC(O)CO)(C2)C3)NC(c2nccs2)=NC1c1ccc(F)cc1Cl (stereo not shown) [Compound 393B, Methyl 4-(2-chloro-4-fluorophenyl)-6-(3-(2,3-dihydroxypropylsulfonamido)bicyclo[1.1.1]pentan-1-yl)-2-(thiazol-2-yl)-1,4-dihydropyrimidine-5-carboxylate] | 7.00 | 85 | 
CCOC(=O)C1=C(C2CCN(S(=O)(=O)[C@H]3C[C@H](C(=O)O)C3)CC2)NC(c2nccs2)=NC1c1ccc(F)c(F)c1Cl (relative stereo) [Compound 370B, (trans)-3-((4-(6-(2-Chloro-3,4-difluorophenyl)-5-(ethoxycarbonyl)-2-(thiazol-2-yl)-3,6-dihydropyrimidin-4-yl)piperidin-1-yl)sulfonyl)cyclobutanecarboxylic Acid] | 8.40 | 23.2 | 
COC(=O)C1=C(C2CCN(S(C)(=O)=O)CC2)NC(c2nccs2)=NC1c1cccc(F)c1Cl (single isomer, unassigned) [Compound 112B, Methyl 4-(2-chloro-3-fluorophenyl)-6-(1-(methylsulfonyl)-piperidin-4-yl)-2-(thiazol-2-yl)-1,4-dihydropyrimidine-5-carboxylate] | 6.02 | 8.2 | 
COC(=O)C1=C(C2CCN(S(=O)(=O)[C@H]3CC[C@H](C(=O)O)CC3)CC2)NC(c2nccs2)=NC1c1ccc(F)cc1Cl (relative stereo) [Compound 313B, (trans)-4-((4-(6-(2-Chloro-4-fluorophenyl)-5-(methoxycarbonyl)-2-(thiazol-2-yl)-3,6-dihydropyrimidin-4-yl)piperidin-1-yl)sulfonyl)-cyclohexanecarboxylic Acid] | 7.96 | 34.6 | 
COC(=O)C1=C(C23CC(NS(=O)(=O)c4cccc(C(=O)O)c4)(C2)C3)NC(c2nccs2)=NC1c1ccc(F)cc1Cl (stereo not shown) [Compound 208B, 3-(N-(3-(6-(2-Chloro-4-fluorophenyl)-5-(methoxycarbonyl)-2-(thiazol-2-yl)-3,6-dihydropyrimidin-4-yl)bicyclo[1.1.1]pentan-1-yl)sulfamoyl)benzoic acid] | 6.55 | > 100 | 
COC(=O)C1=C(C2CCN(S(=O)(=O)C3CCC(C(=O)OC(C)(C)C)CC3)CC2)NC(c2nccs2)=NC1c1ccc(F)cc1Cl (single isomer, unassigned) [Compound 312X, Methyl 6-(1-((4-(tert-butoxycarbonyl)cyclohexyl)sulfonyl)-piperidin-4-yl)-4-(2-chloro-4-fluorophenyl)-2-(thiazol-2-yl)-1,4-dihydropyrimidine-5-carboxylate] | 7.01 | > 100 | 
COC(=O)C1=C(C2CN(S(=O)(=O)c3ccccc3)C2)NC(c2nccs2)=NC1c1ccc(F)cc1Cl (stereo not shown) [Compound 130, 6-(1-Benzenesulfonyl-azetidin-3-yl)-4-(2-chloro-4-fluoro-phenyl)-2-thiazol-2-yl-1,4-dihydro-pyrimidine-5-carboxylic acid methyl ester] | 6.26 | > 10 | 
COC(=O)C1=C(C2CNC(=O)C2)NC(c2nccs2)=NC1c1cccc(F)c1Cl (stereo not shown) [Compound 284, methyl 4-(2-chloro-3-fluorophenyl)-6-(−5-oxopyrrolidin-3-yl)-2-(thiazol-2-yl)-1,4-dihydropyrimidine-5-carboxylate] | 6.65 | 21.1 | 
COC(=O)C1=C(C2CCN(S(=O)(=O)c3cnn(C[C@@H](C)O)c3)CC2)NC(c2nccs2)=NC1c1ccc(F)cc1Cl (stereo partly drawn) [Compound 360C, methyl 4-(2-chloro-4-fluorophenyl)-6-(1-((1-((R)-2-hydroxypropyl)-1H-pyrazol-4-yl)sulfonyl)piperidin-4-yl)-2-(thiazol-2-yl)-1,4-dihydropyrimidine-5-carboxylate] |  | 17 | 7.77
COC(=O)C1=C(C2CCN(S(C)(=O)=O)CC2)NC(c2nccs2)=NC1c1ccc(Cl)c(F)c1 (single isomer, unassigned) [Compound 124B, 4-(4-Chloro-3-fluoro-phenyl)-6-(1-methanesulfonyl-piperidin-4-yl)-2-thiazol-2-yl-1,4-dihydro-pyrimidine-5-carboxylic Acid Methyl Ester] | 7.07 | 6.6 | 
CCOC(=O)C1=C([C@@H]2CCC[C@H](C(=O)O)CC2)NC(c2nccs2)=NC1c1ccc(F)c(F)c1Cl (relative stereo) [Compound 302C, (cis)-4-(−6-(2-Chloro-3,4-difluorophenyl)-5-(ethoxycarbonyl)-2-(thiazol-2-yl)-3,6-dihydropyrimidin-4-yl)cycloheptanecarboxylic Acid] | 7.30 | 10.2 | 
COC(=O)C1=C(C2CCCC(C(=O)O)CC2)NC(c2nccs2)=NC1c1ccc(F)cc1Cl (single isomer, unassigned) [Compound 95A, 4-(6-(2-Chloro-4-fluorophenyl)-5-(methoxycarbonyl)-2-(thiazol-2-yl)-3,6-dihydropyrimidin-4-yl)cycloheptanecarboxylic Acid] | 7.00 |  | 
